Measured values taken from article PMC9030697, “Engineering and Structural Insights of a Novel BBI-like Protease Inhibitor Livisin from the Frog Skin Secretion” (Toxins, 2022).
Values after ≈ are worked out from the molar mass of the structure shown. Like-named read-outs stand apart in the source and are kept apart here.

Columns and labels:
[1] = tested on: Staphylococcus aureus (NCTC 10788)
Method: (§1) The antimicrobial activities of the five peptides were assessed by determining their minimal inhibitory concentrations (MICs) against three standard microorganisms, the Gram-positive bacterium Staphylococcus aureus (NCTC 10788) and the Gram-negative bacterium Escherichia coli (NCTC 10418), and the opportunistic pathogen yeast Candida albicans (NCPF 1467).
(§2) Minimal inhibitory concentration assay. Antimicrobial activities of the peptides were monitored by determining their minimal inhibitory concentrations (MICs) using three standard microorganisms, which were Gram-positive bacterium Staphylococcus aureus (NCTC 10788), Gram-negative bacterium Escherichia coli (NCTC 10418), and opportunistic pathogen yeast Candida albicans (NCPF 1467). The peptides were dissolved in physiological PBS, two-fold diluted to obtain a series of concentrations, and added into wells of 96-well microtiter plates. The respective concentrations of peptides and controls were incubated with microorganism cultures (5 × 10^5 colony-forming units/mL) for 18 h at 37 °C in a humidified atmosphere. Then, the growth of microorganisms was detected by measuring optical density at λ = 550 nm using an absorbance reader (BioTek Instruments, Winooski, VT, USA). MIC was defined as the minimum concentration of peptide at which no growth was detectable.

[2] = tested on: Escherichia coli (NCTC 10418)
Method: as §1, §2

[3] = tested on: Candida albicans (NCPF 1467)
Method: as §1, §2

[4] = target: T1, human proteasome 20s (Homo sapiens, UniProt P28074); assay: Kinetic assay for the inhibition constant (Ki), 20s proteasome; assay type: biochemical
T1 construct: purchased Biochem, Boston, MA, USA
Method: (§3) The inhibitory activities against these proteases were tested at a peptide concentration ranging from 0.1 μM to 100 μM.
(§4) (a) Bovine trypsin; (b) matriptase; (c) chymotrypsin; (d) mesotrypsin; (e) human proteasome 20s. The activity of each protease was assayed in the presence of each peptide ranging from 0.1 μM to 100 μM in PBS (pH 7.4) and the corresponding substrate: Z-Gly-Gly-Arg-NHMec (trypsin); Suc-Ala-Ala-Pro-Phe-NHMec (chymotrypsin); Boc-Gln-Ala-Arg-AMC (matriptase); Mca-Arg-Pro-Val-Glu-Nval-Trp-Arg-Lys(Dnp)-NH2 (mesotrypsin); Suc-Leu-Leu-Val-Tyr-AMC (human proteasome 20s).
(§5) Kinetic assays for the inhibition constant (Ki). […] Inhibitory activities against the proteases of the peptides were tested using previously published papers and manufacturers’ instructions from 0.1 μM to 100 μM in PBS (pH 7.4). Wells of a black microtiter plate were loaded with designed different concentrations of peptide solution. […] For the human proteasome 20s, florescent was read after 15 min pre-incubation. The fluorescent products’ formation rate was measured continuously at 37 °C in the kinetic model using a multi-detection microplate reader (BMG Labtech, Ortenberg, Germany). […] Assays were repeated individually three times, and the Ki was calculated by non-linear regression (Morrison equation) using GraphPad Prism.

[5] = target: T2, mesotrypsin (Homo sapiens, UniProt P35030); assay: Kinetic assay for the inhibition constant (Ki), mesotrypsin; assay type: biochemical
T2 construct: purchased R&D systems
T2 sequence (P35030 1-304): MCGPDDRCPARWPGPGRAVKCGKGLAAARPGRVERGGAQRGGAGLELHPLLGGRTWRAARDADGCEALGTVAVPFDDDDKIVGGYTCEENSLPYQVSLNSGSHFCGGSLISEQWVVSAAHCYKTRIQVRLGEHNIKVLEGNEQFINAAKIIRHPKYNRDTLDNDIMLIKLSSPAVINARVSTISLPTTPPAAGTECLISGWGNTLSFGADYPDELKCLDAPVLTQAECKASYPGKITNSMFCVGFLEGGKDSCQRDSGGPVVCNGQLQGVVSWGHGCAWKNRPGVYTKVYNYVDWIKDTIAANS
Method: as §3, §4, §5

[6] = target: T3, human matriptase-1 (Homo sapiens, UniProt Q9Y5Y6); assay: Kinetic assay for the inhibition constant (Ki), matriptase; assay type: biochemical
T3 construct: purchased R&D systems
T3 sequence (Q9Y5Y6 1-855): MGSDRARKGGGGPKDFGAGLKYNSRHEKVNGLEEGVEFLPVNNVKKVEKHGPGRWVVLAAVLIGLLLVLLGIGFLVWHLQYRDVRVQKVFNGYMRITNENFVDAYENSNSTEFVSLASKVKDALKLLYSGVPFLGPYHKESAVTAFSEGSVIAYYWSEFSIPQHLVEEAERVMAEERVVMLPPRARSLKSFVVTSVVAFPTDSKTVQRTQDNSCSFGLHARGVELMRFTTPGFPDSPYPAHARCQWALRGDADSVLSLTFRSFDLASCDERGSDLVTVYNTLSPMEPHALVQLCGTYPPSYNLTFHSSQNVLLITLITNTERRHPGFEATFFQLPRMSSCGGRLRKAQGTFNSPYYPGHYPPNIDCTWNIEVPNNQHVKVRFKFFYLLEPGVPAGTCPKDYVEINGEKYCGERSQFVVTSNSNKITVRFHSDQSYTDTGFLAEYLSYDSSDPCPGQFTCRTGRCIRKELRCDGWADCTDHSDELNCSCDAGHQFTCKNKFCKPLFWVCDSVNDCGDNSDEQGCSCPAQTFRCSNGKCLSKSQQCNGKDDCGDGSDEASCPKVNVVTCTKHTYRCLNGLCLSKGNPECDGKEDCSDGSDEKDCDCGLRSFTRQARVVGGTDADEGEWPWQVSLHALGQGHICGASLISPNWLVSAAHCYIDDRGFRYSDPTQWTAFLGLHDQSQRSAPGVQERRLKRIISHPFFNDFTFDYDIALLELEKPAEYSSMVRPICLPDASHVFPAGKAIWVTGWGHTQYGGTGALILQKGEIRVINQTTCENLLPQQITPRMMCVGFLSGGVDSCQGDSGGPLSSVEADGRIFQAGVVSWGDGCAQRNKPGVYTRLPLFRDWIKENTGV
Method: as §3, §4, §5

[7] = target: chymotrypsin (Bos taurus, UniProt P00766); assay: biochemical
Method: as §3, §4, §5

[8] = target: T4, bovine trypsin (Bos taurus, UniProt P00760); assay: Kinetic assay for the inhibition constant (Ki), trypsin; assay type: biochemical
T4 construct: purchased Sigma-Aldrich
T4 sequence (P00760 24-246): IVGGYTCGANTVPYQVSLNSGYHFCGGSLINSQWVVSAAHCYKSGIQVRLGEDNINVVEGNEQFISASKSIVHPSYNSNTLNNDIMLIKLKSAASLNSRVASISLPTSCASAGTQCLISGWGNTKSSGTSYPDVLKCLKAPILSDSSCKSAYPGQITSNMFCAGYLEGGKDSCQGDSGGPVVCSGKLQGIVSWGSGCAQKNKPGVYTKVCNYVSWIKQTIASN
Method: as §3, §4, §5

[9] = two-fold dilutions in PBS, 5 × 10^5 CFU/mL, 18 h at 37 °C, OD 550 nm, highest concentration 512 μg/mL

SMILES | MIC S. aureus (NCTC 10788) ([1]; NCTC 10788, 18 h) [µg/mL] | MIC E. coli (NCTC 10418) ([2]; NCTC 10418, 18 h) [µg/mL] | MIC C. albicans (NCPF 1467) ([3]; NCPF 1467, 18 h) [µg/mL] | Ki ([4]; peptide 0.1-100 μM in PBS pH 7.4, substrate Suc-Leu-Leu-Val-Tyr-AMC 20 μM, 15 min pre-incubation, 37 °C, fluorescence, Morrison equation, three independent experiments, each in duplicate, NI = no inhibition, read-out: Ki 20s Proteasome) [µM] | Ki ([5]; peptide 0.1-100 μM in PBS pH 7.4, substrate Mca-Arg-Pro-Val-Glu-Nval-Trp-Arg-Lys(Dnp)-NH2 20 μM, 37 °C, continuous fluorescence, Morrison equation, three independent experiments, each in duplicate, NI = no inhibition, read-out: Ki Mesotrypsin) [µM] | Ki ([6]; human matriptase, peptide 0.1-100 μM in PBS pH 7.4, substrate Boc-Gln-Ala-Arg-AMC 20 μM, 37 °C, continuous fluorescence, Morrison equation, three independent experiments, each in duplicate, NI = no inhibition, read-out: Ki Matriptase) [µM] | Ki [7] [µM] | Ki [8] [µM] | MIC S. aureus (NCTC 10788) [1, 9] [µg/mL] | MIC E. coli (NCTC 10418) [2, 9] [µg/mL] | MIC C. albicans, given in μM ([3]; same MIC as 256 μg/mL, printed in molar unit, 18 h at 37 °C, OD 550 nm) [µM] | MIC C. albicans (NCPF 1467) [3, 9] [µg/mL] | Ki ([4]; read-out: Ki 20s Proteasome, peptide 0.1-100 μM in PBS pH 7.4, substrate Suc-Leu-Leu-Val-Tyr-AMC 20 μM, 15 min pre-incubation, 37 °C, fluorescence, Morrison equation, three independent experiments, each in duplicate, NI = no inhibition) [µM] | Ki [5] [µM] | Ki [6] [µM] | Ki ([8]; bovine trypsin, peptide 0.1-100 μM in PBS pH 7.4, substrate Z-Gly-Gly-Arg-NHMec 45 μM, 37 °C, continuous fluorescence, Morrison equation, three independent experiments, each in duplicate, NI = no inhibition, read-out: Ki Trypsin) [µM]
CC(C)C[C@H](NC(=O)[C@@H]1CSSC[C@H](NC(=O)CNC(=O)[C@H](CCCNC(=N)N)NC(=O)[C@H](CC(C)C)NC(=O)[C@H](Cc2ccccc2)NC(=O)CN)C(=O)N[C@@H](Cc2c[nH]c3ccccc23)C(=O)N[C@@H]([C@@H](C)O)C(=O)N[C@@H](CCCNC(=N)N)C(=O)N[C@@H](CO)C(=O)N[C@@H](Cc2ccccc2)C(=O)N2CCC[C@H]2C(=O)N2CCC[C@H]2C(=O)N[C@@H](CCCCN)C(=O)N2CCC[C@H]2C(=O)N1)C(=O)O [livisin-Arg] | >512 | >512 | >512 | > 100 | 32.1 | 46.9 | 74.7 | 1.02 |  |  |  |  |  |  |  | 
CC(C)C[C@H](NC(=O)[C@@H]1CSSC[C@H](NC(=O)CNC(=O)[C@H](CCCNC(=N)N)NC(=O)[C@H](CC(C)C)NC(=O)[C@H](Cc2ccccc2)NC(=O)CN)C(=O)N[C@@H](Cc2c[nH]c3ccccc23)C(=O)N[C@@H]([C@@H](C)O)C(=O)N[C@@H](CCCCN)C(=O)N[C@@H](CO)C(=O)N[C@@H](Cc2ccccc2)C(=O)N2CCC[C@H]2C(=O)N2CCC[C@H]2C(=O)N[C@@H](CCCCN)C(=O)N2CCC[C@H]2C(=O)N1)C(N)=O [livisin-NH2] |  |  |  |  |  |  | 144 |  | >512 | >512 | 132 (≈ 255 µg/mL) | 256 (≈ 132 µM) | > 100 | 18.6 | 2.36 | 0.424
